Assay: Mouse 6-hour PK study
Settings: mouse, in vivo
Text: Useful such assays include, but are not limited to e.g., those measurements made in PK studies, such as rodent and non-human primate PK studies, including e.g., mouse (such as mouse 6-hour PK studies), rat PK studies, cynomolgus or rhesus PK studies, or the like. Useful measurements obtained in such PK studies include but are not limited to e.g., maximum concentration (Cmax) reflecting the “peak” of a drug observed after its administration that can reflect not only the rate but also the extent of absorption, area under the curve (AUC) representing the area under the plot of tissue (e.g., plasma) concentration against time after drug administration which is of particular use in estimating bioavailability of drugs and drug total clearance, half-life (t1/2) or the period of time required for the concentration or amount of drug to be reduced to exactly one-half of a given concentration or amount that indicates the persistence of the drug in its volume of distribution, and the like.
Such assessments included human and mouse liver microsomal stability assays as well as 6-hour mouse PK studies.

Row | AUC(0-t) | Cmax | half-life | Structure (SMILES) | mouse 6-hour PK properties as compared to hinokitiol
1 | 0.5 to 1.5 µg·h/mL | 0.5 to 1.5 µg/mL | 1.25 to 4.99 h | O=c1cccc(C2CC3CCC(C2)O3)cc1O (stereo not drawn) [Ex. 6, 4-(8-oxabicyclo[3.2.1]octan-3-yl)-2-hydroxycyclohepta-2,4,6-trien-1-one] | one or more improved mouse 6-hour PK properties as compared to hinokitiol
2 | 0.5 to 1.5 µg·h/mL | 0.5 to 1.5 µg/mL | 1.25 to 4.99 h | O=c1ccccc(C2CCOCC2)c1O [Ex. 8, 2-hydroxy-3-(tetrahydro-211-pyran-4-yl)cyclohepta-2,4,6-trien-1-one] | one or more improved mouse 6-hour PK properties as compared to hinokitiol
3 | 0.5 to 1.5 µg·h/mL | 0.5 to 1.5 µg/mL | 1.25 to 4.99 h | CCc1cccc(C)c(=O)c1O [Ex. 27, 7-ethyl-2-hydroxy-3-methylcyclohepta-2,4,6-trien-1-one] | one or more improved mouse 6-hour PK properties as compared to hinokitiol
4 | < 0.499 µg·h/mL | < 0.499 µg/mL | 1.25 to 4.99 h | Cc1cc(C(C)C)ccc(O)c1=O [Ex. 28, 7-hydroxy-4-isopropyl-2-methylcyclohepta-2,4,6-trien-1-one] | one or more improved mouse 6-hour PK properties as compared to hinokitiol
5 | < 0.499 µg·h/mL | < 0.499 µg/mL | 5 to 9.99 h | Cc1cccc(C(C)C)c(O)c1=O [Ex. 30, 2-hydroxy-3-isopropyl-7-methylcyclohepta-2,4,6-trien-1-one] | one or more improved mouse 6-hour PK properties as compared to hinokitiol
6 | > 20 µg·h/mL | 5 to 20 µg/mL | 1.25 to 4.99 h | O=c1c(O)cc(C2CC2)ccc1F [Ex. 34, 4-cyclopropyl-7-fluoro-2-hydroxycyclohepta-2,4,6-trien-1-one] | one or more improved mouse 6-hour PK properties as compared to hinokitiol
7 | 0.5 to 1.5 µg·h/mL | < 0.499 µg/mL | < 1.25 h | O=c1ccccc(OC2CC3(CC3)C2)c1O [Ex. 82, 2-hydroxy-3-(spiro[2.3]hexan-5-yloxy)cyclohepta-2,4,6-trien-1-one] | one or more improved mouse 6-hour PK properties as compared to hinokitiol
8 | 0.5 to 1.5 µg·h/mL | 1.5 to 5 µg/mL | < 1.25 h | O=c1ccccc(OCC2CC2)c1O [Ex. 83, 3-(cyclopropylmethoxy)-2-hydroxycyclohepta-2,4,6-trien-1-one] | one or more improved mouse 6-hour PK properties as compared to hinokitiol

Assay: Ligand facilitated Fe(III) efflux from liposomes
Type: biochemical
Set-up: unit not given here
Settings: efflux rate k at 10 μM ligand concentration; ferrozine absorbance 562 nm, 120 min kinetic read
Experimental: Assay 1: Ligand Facilitated Fe(III) Efflux from Liposomes
Preparation of POPC (1 palmitoyl-2-oleoyl-sn-glycero-3 phosphocholine): Cholesterol Liposomes
A 1M buffer solution of MES and Tris was prepared by dissolving 121.14 grams of Tris base and 213.25 grams of MES hydrate in 500 mL of MilliQ water and adjusted to pH7.0 using an […] HCl solution before bringing the total volume of the solution to 1 L. A 500 mM solution of FeCl3 was prepared by dissolving 0.811 grams of anhydrous FeCl3 in 10 mL of a 0.1M H2SO4 aqueous solution. Inside buffer is prepared in a 50 mL falcon tube, which was added with 25 mL of MilliQ water, 1.61 g of sodium citrate, 1.5 mL of the above FeCl3 solution, and 2.5 mL of the 1M MES/Tris HCl buffer (pH=7.0), and finally additional MilliQ H2O to bring to a 50 mL final volume.
Lipid solution is prepared by dissolving 206.9 mg of POPC (1-palmitoyl-2-oleoyl-sn-glycero-3-phosphocholine) and 8.6 mg of cholesterol in 10 mL of ethanol.
The lipids solution and the inside buffer solution are independently loaded into 10 mL luer lock syringes for loading into a virgin cartridge on a Precision Nanosystems NanoAssembler to prepare unilamaller liposomes with the following parameters: 7.5 mL total volume, 1.5:1 mixing ratio of inside buffer:lipids solution, 8 mL/min flow rate, ambient temperature, 0.35 mL start waste, and 0.05 mL of end waste. 7.5 mL of liposomes is harvested for purification on a 6-inch long, 1-inch diameter Sephadex G-50 column wetted in 600 mM sodium ascorbate and 50 mM MES/Tris HCl pH 7.0 buffer. This buffer also serves as the column running buffer. The crude liposome solution is carefully loaded with minimal volume of running buffer above the top of the Sphadex, allowed to enter the matrix, and the column is run with the continued addition of running buffer. The eluting liposomes, observed as a milky and turbid solution, are collected until free iron begins to elute (observed as a deep purple color) and the fractions are pooled for phosphorus quantitation.
Determination of Phosphorus Content:
Phosphorus content of eluted liposomes was determined by the process outlined below. 10 μL of liposome elution and a running buffer blank are added to a 5 mL glass vial containing 450 μL of a 8.9 M aqueous H2SO4 solution, the mixture is heated to 225° C. for 25 minutes in an aluminum heat block to hydrolyze POPC and cooled for 5 minutes. 200 μL of a 30% hydrogen peroxide aqueous solution is added to each vial and heated to 225° C. for 25 minutes. After cooling, the phosphorus content was determined using an Abcam Phosphate Assay kit, with buffer subtracted phosphorus levels determined against a standard curve of phosphate included in the kit. Liposomes were diluted to 1 mM phosphate in Running Buffer for use in assays after accounting for dilutions made during phospholipid digestion.
Determination of the Iron Transporting Rate Constant of the Ligands:
Determination of the rate at which a small molecule ligand liberates (transport) Ferric iron from liposomes is performed in clear bottom black 384-well plates on a Spectramax i3x set to read the absorbance at 562 nm in the kinetic mode every 60 seconds for 120 minutes. 1 μL of serially diluted DMSO stock solution of a small molecule ligand is added to wells in triplicate to give the final concentrations of 40, 20, 10, 5, 2.5, and 1.25 uM of the ligand at 80 μL final volume, followed by addition of 1 μL of 100 mM Ferrozine in water to give a final concentration of 1 mM ferrozine. 78 μL of liposomes diluted to 1 mM phosphorus in running buffer is added to wells as quickly as possible (using a digital repeater multichannel pipette) with the kinetic read initiated as rapidly as possible after addition of liposomes to all wells. Typically, eight compounds at six concentrations are tested in triplicate simultaneously. […]

Row | Structure (SMILES) | Liposome Fe transport kefflux at 10 μM
9 | COc1ccc(O)c(=O)cc1 | 5-7.5
10 | Cc1cccc(C2CCCCO2)c(O)c1=O (stereo not drawn) | <.1
11 | O=c1cccc(C2CC3CC3C2)cc1O (stereo not drawn) | 0.1-5
12 | O=c1ccccc(C2CC3CC3C2)c1[O-].[Na+] (stereo not drawn) | 0.1-5
13 | CC1(C)CCC(c2ccc(O)c(=O)cc2)C1 (stereo not drawn) | 0.1-5
14 | O=c1cccc(C2CCC3(CC2)CC3)cc1O | 0.1-5
15 | Cc1cccc(C2CCCO2)c(O)c1=O (stereo not drawn) | 10-25
16 | O=c1cccc(OC2CCC2)cc1O | 0.1-5
17 | O=c1ccccc(OC2CCCC2)c1O | 7.5-10
18 | CC(C)c1cccc(=O)c(S)c1 | 0.1-5
19 | CC(C)c1cccc(S)c(=O)c1 | 0.1-5
20 | O=c1c(F)cccc(OC2CCC2)c1O | 10-25
21 | O=c1ccc(OC2CCCC2)ccc1O | 5-7.5
22 | O=c1cccc2c(c1O)OCCC2 | 5-7.5
23 | O=c1c(F)cccc(C2CC2)c1O | 7.5-10
24 | COC1CCCC1c1ccccc(=O)c1O (stereo not drawn) | 5-7.5
25 | Cc1coc2c(O)c(=O)cccc12 | 7.5-10
26 | O=c1c(F)cccc(OC2CCCC2)c1O | 7.5-10
27 | O=c1c(F)cccc(C2CCCCO2)c1O (stereo not drawn) | 5-7.5
28 | O=c1c(O)ccc(C2CC2)cc1F | 10-25
29 | O=c1ccc(F)ccc1O | 7.5-10
30 | O=c1ccccc(CC2COC2)c1O | <0.1
31 | CC1(c2ccc(O)c(=O)cc2)CC1 | 0.1-5

Row | Structure (SMILES) | Liposome Fe transport kefflux at 10 μM
32 | CC(C)c1ccc(F)cc(O)c1=O | 0.1-5
33 | Cc1cc(F)ccc(=O)c1O | 5-7.5
34 | O=c1ccc(F)cc(C2CCCO2)c1O (stereo not drawn) | 5-7.5
35 | O=c1c(O)ccc(OC2CCCC2)cc1F | 5-7.5
36 | O=c1cccc(F)cc1O | 0.1-5
37 | CCc1ccc(F)c(=O)c(O)c1 | 0.1-5
38 | CC(C)c1cc(F)ccc(=O)c1O | 0.1-5
39 | O=c1ccc(F)cc(C2CCCCO2)c1O (stereo not drawn) | 0.1-5
40 | O=c1ccc(OC2CC3(CC3)C2)ccc1O | 0.1-5
41 | O=c1ccccc(OCC2CCC2)c1O | 5-7.5
42 | O=c1c(F)cccc(OC2CC2)c1O | 0.1-5
43 | CC1(c2ccc(O)c(=O)c(F)c2)CC1 | 5-7.5
44 | O=c1c(F)cccc(OC2CC3(CC3)C2)c1O | 0.1-5
45 | O=c1ccc(C(CO)Cc2ccccc2)ccc1O (stereo not drawn) | 0.1-5
46 | O=c1ccc(F)cc(C2CCOCC2)c1O | 7.5-10
47 | O=c1ccc(F)cc(OC2CCC2)c1O | 0.1-5
48 | Cc1cc(Cl)ccc(=O)c1O | 5-7.5
49 | O=c1cccc(OC2CC3(CC3)C2)cc1O | 5-7.5
50 | C[C@@H]1CCC(c2ccccc(=O)c2O)O1 (mixture of isomers) | 5-7.5
51 | CC1CCC(c2ccccc(=O)c2O)O1 (racemic) | 5-7.5
52 | O=c1cccc(O[C@H]2CCOC2)cc1O (stereo in doubt) | 5-7.5
53 | C[C@@H](Oc1ccccc(=O)c1O)C1CC1 (stereo in doubt) | 5-7.5
54 | C[C@H](Oc1ccccc(=O)c1O)C1CC1 (stereo in doubt) | 5-7.5
